Reference: BindingDB's records for doi:10.1016/s0960-894x(01)00044-0 (Novartis Institute For Medical Sciences, 2001)

Columns and labels:
Substance-P receptor = Substance-P receptor (Cavia porcellus, UniProt P30547); experiment: ChEBML_205410
Excerpt: In vitro binding affinity against Tachykinin receptor 1 in guinea pig ileum using organ bath assay

[1] = In vitro binding affinity against Tachykinin receptor 1 in rabbit whole brain membranes using [3H][Sar9Met(O2)]-SP binding assay

Chain of Substance-P receptor (P30547 whole entry): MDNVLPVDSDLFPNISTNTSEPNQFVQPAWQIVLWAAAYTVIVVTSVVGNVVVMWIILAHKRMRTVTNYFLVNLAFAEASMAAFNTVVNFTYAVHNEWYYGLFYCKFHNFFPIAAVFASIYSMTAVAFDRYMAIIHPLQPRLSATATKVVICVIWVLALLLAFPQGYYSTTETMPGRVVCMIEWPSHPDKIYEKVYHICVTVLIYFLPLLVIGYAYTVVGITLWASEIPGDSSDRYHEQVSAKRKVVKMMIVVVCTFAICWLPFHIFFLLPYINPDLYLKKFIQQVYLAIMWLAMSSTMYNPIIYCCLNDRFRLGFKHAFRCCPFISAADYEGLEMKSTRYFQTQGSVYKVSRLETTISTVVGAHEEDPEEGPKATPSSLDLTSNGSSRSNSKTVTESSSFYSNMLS

## CSCCNS(=O)(=O)c1ccc(NNC(=S)N2CCCC2C(=O)NCc2ccccc2)c([N+](=O)[O-])c1 (configuration not stated)
Substance-P receptor
  IC50: > 100 µM

## CSCCNS(=O)(=O)c1ccc(NNC(=S)N2CCCC2C(=O)NC(c2ccccc2)c2ccccc2)c([N+](=O)[O-])c1 (configuration not stated)
[1]
  IC50: > 50 µM
